Patent publication US20130157954A1, “METHODS FOR TREATMENT OR PROPHYLAXIS OF KIDNEY OR LIVER DYSFUNCTION” (NPS PHARMACEUTICALS, INC., priority 2010, published 2013)

Assay: Example 1: liver biomarkers (total bilirubin, ALT, AST, ALP) in short bowel syndrome patients, every four weeks for 24 weeks; also sorted by >5% change from baseline
Assay type: in vivo, Human
Design: AST (SGOT) Change from Baseline Median / ALT (SGPT) Median / TOTAL BILIRUBIN Median / TOTAL BILIRUBIN Change from Baseline Median / ALT (SGPT) Change from Baseline Median / AST (SGOT) Median: unit not given here
Conditions: 0.05 mg/kg/day
Experimental: Human patients with short bowel syndrome were divided into three groups: a control group (16 total individuals) to receive placebo, an experimental group (35 total individuals) to receive teduglutide at 0.05 mg/kg/day throughout the study, and an experimental group (32 total individuals) to receive teduglutide at 0.1 mg/kg/day throughout the study. Patients were treated by subcutaneous injection of placebo or the appropriate dose of teduglutide. As individuals with short bowel syndrome are likely to experience associated liver and kidney disease, known biomarkers of liver and kidney function were monitored every four weeks, for 24 weeks. The liver biomarkers tested included total bilirubin, ALT and AST and ALP. The kidney biomarkers tested included urea nitrogen, creatinine and GFR. Before administration of placebo or teduglutide, diagnostic biomarker levels were tested to establish a baseline for each individual.
To visualize the effect of GLP-2 on the levels of the diagnostic biomarkers, the average change from baseline was calculated for the placebo and teduglutide treated groups for each visit after a baseline was established. The average change from baseline of each group is depicted in FIGS. 1-7. The numerical figures for each diagnostic biomarker at each time point are depicted in Table 1.
The efficacy of teduglutide in treating liver dysfunction was further tested by sorting the data into two groups: individuals with abnormal baseline values of liver diagnostic biomarkers; and individuals with normal baseline values of liver diagnostic biomarkers. The mean diagnostic biomarker change from baseline for these two groups is shown for ALT (FIGS. 5 and 6) and AST (FIGS. 7 and 8). […] These changes were significant when compared to baseline levels for the group, and when compared to placebo (see FIGS. 5 and 7).
The raw data for this sorting is reproduced in Table 2 below.

CC[C@H](C)[C@H](NC(=O)[C@H](Cc1ccccc1)NC(=O)[C@H](CC(=O)O)NC(=O)[C@H](CCCNC(=N)N)NC(=O)[C@H](C)NC(=O)[C@H](C)NC(=O)[C@H](CC(C)C)NC(=O)[C@H](CC(N)=O)NC(=O)[C@H](CC(=O)O)NC(=O)[C@H](CC(C)C)NC(=O)[C@@H](NC(=O)[C@@H](NC(=O)[C@H](CC(N)=O)NC(=O)[C@H](CCSC)NC(=O)[C@H](CCC(=O)O)NC(=O)[C@H](CC(=O)O)NC(=O)[C@H](CO)NC(=O)[C@H](Cc1ccccc1)NC(=O)[C@H](CO)NC(=O)CNC(=O)[C@H](CC(=O)O)NC(=O)CNC(=O)[C@@H](N)Cc1c[nH]cn1)[C@@H](C)O)[C@@H](C)CC)C(=O)N[C@@H](CC(N)=O)C(=O)N[C@@H](Cc1c[nH]c2ccccc12)C(=O)N[C@@H](CC(C)C)C(=O)N[C@H](C(=O)N[C@@H](CCC(N)=O)C(=O)N[C@H](C(=O)N[C@@H](CCCCN)C(=O)N[C@H](C(=O)N[C@H](C(=O)N[C@@H](CC(=O)O)C(=O)O)[C@@H](C)O)[C@@H](C)CC)[C@@H](C)O)[C@@H](C)CC [teduglutide]
ALKALINE PHOSPHATASE Change from Baseline Median (DW4): −16.0 | ALT (SGPT) Change from Baseline Median (DW4): −5.0 | ALT (SGPT) Median (DW4): 27.0 | AST (SGOT) Change from Baseline Median (DW4): −4.0 | AST (SGOT) Median (DW4): 27.0 | TOTAL BILIRUBIN Change from Baseline Median (DW4): 0.0 | TOTAL BILIRUBIN Median (DW4): 7.0 | ALKALINE PHOSPHATASE Change from Baseline Median (DW8): −20.0 | ALT (SGPT) Change from Baseline Median (DW8): −4.0 | AST (SGOT) Change from Baseline Median (DW8): −3.0 | AST (SGOT) Median (DW8): 28.0 | TOTAL BILIRUBIN Change from Baseline Median (DW8): −1.0 | TOTAL BILIRUBIN Median (DW8): 8.0 | ALKALINE PHOSPHATASE Change from Baseline Median (DW12): −24.0 | ALT (SGPT) Change from Baseline Median (DW12): −10.0 | ALT (SGPT) Median (DW12): 26.0 | AST (SGOT) Change from Baseline Median (DW12): −8.0 | TOTAL BILIRUBIN Change from Baseline Median (DW12): −1.0 | TOTAL BILIRUBIN Median (DW12): 7.0 | ALT (SGPT) Change from Baseline Median (DW16): −2.5 | ALT (SGPT) Median (DW16): 28.0 | AST (SGOT) Change from Baseline Median (DW16): −1.5 | AST (SGOT) Median (DW16): 25.0 | TOTAL BILIRUBIN Change from Baseline Median (DW16): −1.0 | TOTAL BILIRUBIN Median (DW16): 7.0 | ALKALINE PHOSPHATASE Change from Baseline Median (DW20): −25.0 | ALT (SGPT) Change from Baseline Median (DW20): −5.0 | ALT (SGPT) Median (DW20): 26.0 | AST (SGOT) Change from Baseline Median (DW20): −4.0 | AST (SGOT) Median (DW20): 25.0 | TOTAL BILIRUBIN Change from Baseline Median (DW20): 0.0 | TOTAL BILIRUBIN Median (DW20): 9.0 | ALKALINE PHOSPHATASE Change from Baseline Median (DW 24): −29.0 | ALT (SGPT) Change from Baseline Median (DW 24): −5.0 | ALT (SGPT) Median (DW 24): 20.0 | AST (SGOT) Change from Baseline Median (DW 24): −4.5 | AST (SGOT) Median (DW 24): 25.0 | TOTAL BILIRUBIN Change from Baseline Median (DW 24): 0.0 | TOTAL BILIRUBIN Median (DW 24): 8.0 | ALKALINE PHOSPHATASE change from baseline <−5%, number of patients (week 4): 21 | ALKALINE PHOSPHATASE change from baseline <−5%, percent of patients (week 4): (60.0%) | ALKALINE PHOSPHATASE change from baseline >5%, number of patients (week 4): 3 | ALKALINE PHOSPHATASE change from baseline >5%, percent of patients (week 4): (8.6%) | ALKALINE PHOSPHATASE change from baseline −5% <= and <=5%, number of patients (week 4): 6 | ALKALINE PHOSPHATASE change from baseline −5% <= and <=5%, percent of patients (week 4): (17.1%) | ALT (SGPT) change from baseline <−5%, number of patients (week 4): 22 | ALT (SGPT) change from baseline <−5%, percent of patients (week 4): (62.9%) | ALT (SGPT) change from baseline >5%, number of patients (week 4): 8 | ALT (SGPT) change from baseline >5%, percent of patients (week 4): (22.9%) | ALT (SGPT) change from baseline −5% <= and <=5%, number of patients (week 4): 0 | ALT (SGPT) change from baseline −5% <= and <=5%, percent of patients (week 4): (0.0%) | AST (SGOT) change from baseline <−5%, number of patients (week 4): 21 | AST (SGOT) change from baseline <−5%, percent of patients (week 4): (60.0%) | AST (SGOT) change from baseline >5%, number of patients (week 4): 5 | AST (SGOT) change from baseline >5%, percent of patients (week 4): (14.3%) | AST (SGOT) change from baseline −5% <= and <=5%, number of patients (week 4): 2 | AST (SGOT) change from baseline −5% <= and <=5%, percent of patients (week 4): (5.7%) | TOTAL BILIRUBIN change from baseline <−5%, number of patients (week 4): 12 | TOTAL BILIRUBIN change from baseline <−5%, percent of patients (week 4): (34.3%) | TOTAL BILIRUBIN change from baseline >5%, number of patients (week 4): 8 | TOTAL BILIRUBIN change from baseline >5%, percent of patients (week 4): (22.9%) | TOTAL BILIRUBIN change from baseline −5% <= and <=5%, number of patients (week 4): 6 | TOTAL BILIRUBIN change from baseline −5% <= and <=5%, percent of patients (week 4): (17.1%) | ALKALINE PHOSPHATASE change from baseline <−5%, number of patients (week 8): 21 | ALKALINE PHOSPHATASE change from baseline <−5%, percent of patients (week 8): (60.0%) | ALKALINE PHOSPHATASE change from baseline >5%, number of patients (week 8): 6 | ALKALINE PHOSPHATASE change from baseline >5%, percent of patients (week 8): (17.1%) | ALKALINE PHOSPHATASE change from baseline −5% <= and <=5%, number of patients (week 8): 2 | ALKALINE PHOSPHATASE change from baseline −5% <= and <=5%, percent of patients (week 8): (5.7%) | ALT (SGPT) change from baseline <−5%, number of patients (week 8): 16 | ALT (SGPT) change from baseline <−5%, percent of patients (week 8): (45.7%) | ALT (SGPT) change from baseline >5%, number of patients (week 8): 9 | ALT (SGPT) change from baseline >5%, percent of patients (week 8): (25.7%) | ALT (SGPT) change from baseline −5% <= and <=5%, number of patients (week 8): 4 | ALT (SGPT) change from baseline −5% <= and <=5%, percent of patients (week 8): (11.4%) | AST (SGOT) change from baseline <−5%, number of patients (week 8): 16 | AST (SGOT) change from baseline <−5%, percent of patients (week 8): (45.7%) | AST (SGOT) change from baseline >5%, number of patients (week 8): 9 | AST (SGOT) change from baseline >5%, percent of patients (week 8): (25.7%) | AST (SGOT) change from baseline −5% <= and <=5%, number of patients (week 8): 4 | AST (SGOT) change from baseline −5% <= and <=5%, percent of patients (week 8): (11.4%) | TOTAL BILIRUBIN change from baseline <−5%, number of patients (week 8): 13 | TOTAL BILIRUBIN change from baseline <−5%, percent of patients (week 8): (37.1%) | TOTAL BILIRUBIN change from baseline >5%, number of patients (week 8): 8 | TOTAL BILIRUBIN change from baseline >5%, percent of patients (week 8): (22.9%) | TOTAL BILIRUBIN change from baseline −5% <= and <=5%, number of patients (week 8): 4 | TOTAL BILIRUBIN change from baseline −5% <= and <=5%, percent of patients (week 8): (11.4%) | ALKALINE PHOSPHATASE change from baseline <−5%, number of patients (week 12): 23 | ALKALINE PHOSPHATASE change from baseline <−5%, percent of patients (week 12): (65.7%) | ALKALINE PHOSPHATASE change from baseline >5%, number of patients (week 12): 2 | ALKALINE PHOSPHATASE change from baseline >5%, percent of patients (week 12): (5.7%) | ALKALINE PHOSPHATASE change from baseline −5% <= and <=5%, number of patients (week 12): 2
